Patent US20260070917A1, “CYCLIN DEPENDENT KINASE DEGRADERS AND METHODS OF USE THEREOF” (Differentiated Therapeutics Inc, priority 2023, published 2026)

Experiments:
[1] = biological target: T1, CCNE1 (Homo sapiens, UniProt P24864); experiment: HiBit Assay Protocol for CCNE1 (HIBIT protein quantification, degradation); format: cell-based; settings: HEK293-CCNE1-Hibit cells, compound treatment for 6 hours
T1 construct: host or cells: HEK293-CCNE1-Hibit
Protocol: HiBit Assay Protocol for CCNE1
(§1) • 1. The culture medium for HEK293-CCNE1-Hibit cell was prepared using EMEM with 1000 FBS. • 2. Cells were cultivated in T-75 flasks in a cell culture incubator set at 37° C., 5% CO2, 95% relative humidity. Cells were allowed to reach 80-90% confluence before detaching and splitting. • 3. Cultivated cells were rinsed in T-75 flasks with 5 mL PBS. Aspirate off Added was 1.5 mL trypsin, and the cells were incubated at 37° C. for approximately 5 minutes or until the cells detached and floated. • 4. Trypsin was inactivated by adding excess serum containing medium. • 5. Cells were harvested from flask into cell culture medium and then the cell number was counted. HEK293-CCNE1-Hibit cell were seeded into 384-well plate (cell density: 1.6×10^5 cells/well/50 uL medium) in EMEM medium according to the plate map below and incubated overnight at 37° C. and 500 CO2. • Note: Cell Cultured Medium: 90% EMEM+10% FBS+1% Penicillin-Streptomycin Liquid
(§2) • 1. Test compounds were dissolved at 10 mM DMSO stock solution. 45 μL of stock solution was transferred to a 384 pp-plate. A 3-fold, 10-point dilution was performed via transferring 15 uL compound into 30 uL DMSO by using TECAN liquid handler. • 2. The plates were spinned at room temperature at 1,000 RPM for 1 minute. • 3. 50 nL of diluted compound was transferred from compound source plate into the cell plate by Echo. • 4. After compound treatment for 6 hours, the plate was removed from incubators and equilibrated at room temperature for 15 minutes. The HiBit reagent was prepared, consisting of the following ratios: 10 mL of Nano-Glo®-HiBiT Lytic Buffer, 200 μL of Nano-Glo®-HiBiT Lytic Substrate and 100 μL of LgBiT Protein, mix thoroughly. 20 μL of HiBit reagent was added into each well and the plates were spinned at room temperature at 1,000 RPM for 1 minute to be detected. Then the plates were shaken at 600 RPM at room temperature for 20 minutes, and read by EnVision. • 5. The inhibition activity was calculated following the formula below:
(§3) [formula] • Note: Where HC is obtained from cells treated with […] only; LC is obtained from culture medium only. • 6. ABS DC50 was calculated by fitting the Curve using Xlfit (v5.3.1.3), equation 201: […]

[2] = biological target: T2, CDK2 (Homo sapiens, UniProt P24941); experiment: HiBit Assay Protocol for CDK2 (HIBIT protein quantification, degradation); format: cell-based; settings: HEK293-CDK2-Hibit cells, compound treatment for 6 hours; for DC50: ABS DC50
T2 construct: host or cells: HEK293-CDK2-Hibit
Protocol: HiBit Assay Protocol for CDK2
as §1, with “HEK293-CDK2-Hibit cells” for “HEK293-CCNE1-Hibit cell”, “DMEM” for “EMEM”, “10%” for “1000”, “5%” for “500”, “DMEM+10%” for “EMEM+10%”
as §2, with “mM DMS” for “mM DMSO”, “45 uL” for “45 μL”, “100 uL” for “100 μL”, “Protein, mixed” for “Protein, mix”
as §3

T1 sequence (P24864 whole entry): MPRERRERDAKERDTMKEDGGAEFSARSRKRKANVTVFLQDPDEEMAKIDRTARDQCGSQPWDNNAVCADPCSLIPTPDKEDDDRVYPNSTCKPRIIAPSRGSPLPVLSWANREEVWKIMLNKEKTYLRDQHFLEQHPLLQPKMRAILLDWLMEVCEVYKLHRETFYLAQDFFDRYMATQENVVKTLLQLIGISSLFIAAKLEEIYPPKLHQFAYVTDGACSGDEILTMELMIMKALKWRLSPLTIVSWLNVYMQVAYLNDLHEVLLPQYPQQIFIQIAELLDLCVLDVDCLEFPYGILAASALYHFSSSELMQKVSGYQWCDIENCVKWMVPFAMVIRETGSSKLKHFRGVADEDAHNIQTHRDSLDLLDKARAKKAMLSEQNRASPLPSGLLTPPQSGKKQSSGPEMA

SMILES	CCNE1 HIBIT Protein Quantification Maximum [1] [%]	CDK2 HIBIT Protein Quantification Maximum [2] [%]	DC50 [2] [nM]
CC1CCCC1N1C(=O)C2(CC2)c2cnc(NC3CCN(S(=O)(=O)C4CCN(C(=O)CCCCCc5cccc6c5n(C)c(=O)n6C5CCC(=O)NC5=O)C4)CC3)nc21 (centres unmarked) [Compound 1, 3-{3-Methyl-4-[6-(3-{4-[7′-(2-methylcyclopentyl)-6′-oxospiro[cyclopropane-1,5′-pyrrolo[2,3-d]pyrimidin]-2′-ylamino]piperidin-1-ylsulfonyl}pyrrolidin-1-yl)-6-oxohexyl]-2-oxo-1,3-benzodiazol-1-yl}piperidine-2,6-dione]	30.9	70.2	16
CC1CCCC1N1C(=O)C2(CC2)c2cnc(NC3CCN(S(=O)(=O)N4CCC5(CCCN5C(=O)CCCCCCCc5cccc6c5n(C)c(=O)n6C5CCC(=O)NC5=O)C4)CC3)nc21 (centres unmarked) [Compound 2, 3-{3-Methyl-4-[8-(7-{4-[7′-(2-methylcyclopentyl)-6′-oxospiro[cyclopropane-1,5′-pyrrolo[2,3-d]pyrimidin]-2′-ylamino]piperidin-1-ylsulfonyl}-1,7-diazaspiro[4.4]nonan-1-yl)-8-oxooctyl]-2-oxo-1,3-benzodiazol-1-yl}piperidine-2,6-dione]	41.1	45.7	
CC1CCCC1N1C(=O)C2(CC2)c2cnc(NC3CCN(S(=O)(=O)N4CC5(CCCN(C(=O)CCCCCCCc6cccc7c6n(C)c(=O)n7C6CCC(=O)NC6=O)C5)C4)CC3)nc21 (centres unmarked) [Compound 3]	19.4	34.6	
CC1CCCC1N1C(=O)C2(CC2)c2cnc(NC3CCN(S(=O)(=O)N4CC5(CCN(C(=O)CCCCCCCc6cccc7c6n(C)c(=O)n7C6CCC(=O)NC6=O)CC5)C4)CC3)nc21 (centres unmarked) [Compound 4]	21.2	56.5	6.7
CC1CCCC1N1C(=O)C2(CC2)c2cnc(NC3CCN(S(=O)(=O)N4CC5CN(C(=O)CCCCCCCc6cccc7c6n(C)c(=O)n7C6CCC(=O)NC6=O)CC54)CC3)nc21 (centres unmarked) [Compound 5]	21.9	24.9	
CC1CCCC1N1C(=O)C2(CC2)c2cnc(NC3CCN(S(=O)(=O)C4CCN(C(=O)CCCCCCCc5cccc6c5n(C)c(=O)n6C5CCC(=O)NC5=O)C4)CC3)nc21 (centres unmarked) [Compound 6]	30	66.2	14.6
CC1CCCC1N1C(=O)C2(CC2)c2cnc(NC3CCN(S(=O)(=O)N4CCN(C(=O)CCCc5ccc6c(c5)n(C)c(=O)n6C5CCC(=O)NC5=O)CC4)CC3)nc21 (centres unmarked) [Compound 7]	21.2	37.9	
CC1CCCC1N1C(=O)C2(CC2)c2cnc(NC3CCN(S(=O)(=O)N4CCN(C(=O)CCCCc5cccc6c5n(C)c(=O)n6C5CCC(=O)NC5=O)CC4)CC3)nc21 (centres unmarked) [Compound 8]	24.7	59.2	8.8
CC1CCCC1N1C(=O)C2(CC2)c2cnc(NC3CCN(S(=O)(=O)N4CC5(CCN(C(=O)CCCCc6cccc7c6n(C)c(=O)n7C6CCC(=O)NC6=O)CC5)C4)CC3)nc21 (centres unmarked) [Compound 9]		48.4	
CC1CCCC1N1C(=O)C2(CC2)c2cnc(NC3CCN(S(=O)(=O)N4CCC5(CCN(C(=O)CCCCc6cccc7c6n(C)c(=O)n7C6CCC(=O)NC6=O)C5)C4)CC3)nc21 (centres unmarked) [Compound 10]		38.9	
CC1CCCC1N1C(=O)C2(CC2)c2cnc(NC3CCN(S(=O)(=O)C4CCN(C(=O)CCCCc5cccc6c5n(C)c(=O)n6C5CCC(=O)NC5=O)C4)CC3)nc21 (centres unmarked) [Compound 11]	23.6	49.5	
CC1CCCC1N1C(=O)C2(CC2)c2cnc(NC3CCN(S(=O)(=O)N4CCC(CN5CCC(c6cccc7c6n(C)c(=O)n7C6CCC(=O)NC6=O)CC5)CC4)CC3)nc21 (centres unmarked) [Compound 14, 3-(3-Methyl-4-{1-[(1-{4-[7′-(2-methylcyclopentyl)-6′-oxospiro[cyclopropane-1,5′-pyrrolo[2,3-d]pyrimidin]-2′-ylamino]piperidin-1-ylsulfonyl}piperidin-4-yl)methyl]piperidin-4-yl}-2-oxo-1,3-benzodiazol-1-yl)piperidine-2,6-dione]	37.7	57.4	4.56

The remaining lines, values ahead:

CCNE1 HIBIT Protein Quantification Maximum [1] [%]	CDK2 HIBIT Protein Quantification Maximum [2] [%]	DC50 [2] [nM]	SMILES
16.9	34.6		CC1CCCC1N1C(=O)C2(CC2)c2cnc(NC3CCN(S(=O)(=O)N4CCN(C(=O)CCCCc5ccc6c(c5)n(C)c(=O)n6C5CCC(=O)NC5=O)CC4)CC3)nc21 (centres unmarked) [Compound 12]
47	82	3.58	Cn1nc(N2CCC(=O)NC2=O)c2ccc(C3CCN(Cc4cccc(S(=O)(=O)N5CCC(Nc6ncc7c(n6)N([C@@H]6CCC[C@@H](O)C6)C(=O)C76CCC6)CC5)c4)CC3)cc21 [Compound 174, 1-[6-(1-{[3-(4-{7′-[(1R,3R)-3-Hydroxycyclohexyl]-6′-oxospiro[cyclobutane-1,5′-pyrrolo[2,3-d]pyrimidin]-2′-ylamino}piperidin-1-ylsulfonyl)phenyl]methyl}piperidin-4-yl)-1-methylindazol-3-yl]-1,3-diazinane-2,4-dione]
47	88	2.62	CC1CN(C(C)c2cccc(S(=O)(=O)N3CC[C@H](Nc4ncc5c(n4)N([C@@H]4CCC[C@@H](O)C4)C(=O)C54CC4)[C@H](F)C3)c2)CCC1c1ccc2c(N3CCC(=O)NC3=O)nn(C)c2c1 (some centres unmarked) [Compound 189]
27	70	13.6	CC(C)C1CC(c2ccc3c(N4CCC(=O)NC4=O)nn(C)c3c2)CCN1C(C)c1cccc(S(=O)(=O)N2CC[C@H](Nc3ncc4c(n3)N([C@@H]3CCC[C@@H](O)C3)C(=O)C43CC3)[C@H](F)C2)c1 (some centres unmarked) [Compound 190]
48	85	10.3	C[C@H](c1cccc(S(=O)(=O)N2CC[C@H](Nc3ncc4c(n3)N([C@@H]3CCC[C@@H](O)C3)C(=O)C43CC3)[C@H](F)C2)c1)N1CCN(c2ccc3c(N4CCC(=O)NC4=O)nn(C)c3c2)C[C@@H]1C [Compound 193]
42	94	3.86	C[C@H]1CN(c2ccc3c(N4CCC(=O)NC4=O)nn(C)c3c2)CCN1[C@@H](C)c1cccc(S(=O)(=O)N2CC[C@H](Nc3ncc4c(n3)N([C@@H]3CCC[C@@H](O)C3)C(=O)C43CC3)[C@H](F)C2)c1 [Compound 194]
47	91	4.7	C[C@H](c1cc(S(=O)(=O)N2CC[C@H](Nc3ncc4c(n3)N([C@@H]3CCC[C@@H](O)C3)C(=O)C43CC3)[C@H](F)C2)ccc1F)N1CCN(c2ccc3c(N4CCC(=O)NC4=O)nn(C)c3c2)CC1 [Compound 210]
